Test results: patent US7989428B2, “Combined telomerase inhibitor and gemcitabine for the treatment of cancer” (Geron Corporation, priority 2006, dated 2011)

Tested on: A549 tumor cells
Assay: A549 subcutaneous mouse xenograft model, GRN163L and/or gemcitabine
Assay type: in vivo, mice
Details: A549 s.c. xenograft, 60 days; gemcitabine 100 mg/kg IP, GRN163L 15 mg/kg IP
Method: In one exemplary method, gemcitabine is administered in combination with a telomerase-inhibitor oligonucleotide targeted against hTR. […] Groups of 10 mice each were treated in accordance with one of three protocols: (1) Gemcitabine (100 mg/kg, IP) was administered 2 times/week for the first 1.5 weeks, then once weekly for the remainder of the study. […] (3) The two agents were administered together according to the individual-agent protocols.

Compound: Cl.Nc1ccn([C@@H]2O[C@H](CO)[C@@H](O)C2(F)F)c(=O)n1 (single isomer, unassigned) [gemcitabine, 2′-deoxy-2′,2′-difluorocytidine monohydrochloride ((beta)-isomer)]
- tumor growth during the treatment period: effective in preventing tumor growth
